Experiments:
[1] = system: CXCR4-expressing U937 monocytic cells; test: Leukocyte chemotaxis assay (Transwell, U937 monocytes over epithelial monolayers); assay type: cell-based, human
Method: Leukocyte chemotaxis assay. HT29 or HCT116 cells were plated and grown to confluence in 24-well dishes. Cells were then serum starved for 2 days. Calcein-AM (Molecular Probes) loaded U937 monocytes (5×10^5) were plated to the upper well of a Transwell chemotaxis chamber (5 μm pore size, Corning Costar, Corning, N.Y.), with the serum-starved epithelial monolayers in the bottom chamber. U937-epithelial co-cultures were supplemented with the CXCR4 receptor antagonist AMD3100 (5 μg/ml) or remain untreated as a control. U937 cells were incubated without epithelial cells or, as a separate control, epithelial cells alone, were used to establish constitutive chemotaxis or auto-fluorescence respectively. U937 cells were incubated with epithelial cells for 3 hr and the number of migrated calcein-loaded monocytes in the bottom chamber quantified by fluorescence spectroscopy (Victor Wallac, Perkin Elmer).

Dnmt1 = target: T1, Dnmt1 (Homo sapiens, UniProt P26358); test: Immunoblot of extractable Dnmt1 in 5-aza-treated HCT116 cells; assay type: cell-based; conditions: increasing concentrations of 5-aza
T1 construct: endogenous in cells; host or cells: HCT116 (ATCC CCL-247)
Text: (§1) Human colorectal carcinoma cell lines. HT29 (HTB-38), HCT116 (CCL-247), Caco2 (HTB-37), T84 (CCL-248) colonic carcinoma cells were purchased from the American Type Culture Collection (ATCC, Rockville, Md.) and maintained as previously described (Smith, J. M., et al. (2005) Am. J. Physiol Gastrointest. Liver Physiol 288, 316-26; Dwinell, M. B., et al. (2001) Gastroenterology 120, 49-59). Dnmt1, Dnmt3b or Dnmt1/Dnmt3b double knockout HCT116 cells were the kind gift of Dr. Bert Vogelstein (John Hopkins University School of Medicine) and were maintained similarly to wild-type HCT116 cells. In some experiments, carcinoma cells were treated with 5-aza (EMD Biosciences, La Jolla, Calif.) every 24 hr for the indicated number of days.
Immunoblot analysis. For the detection of Dnmt1, Dnmt3b and actin, whole cell lysates were prepared as previously described (Smith, J. M., Johanesen, P. A., Wendt, M. K., Binion, D. G., and Dwinell, M. B. (2005). CXCL12 activation of CXCR4 regulates mucosal host defense through stimulation of epithelial cell migration and promotion of intestinal barrier integrity. Am. J. Physiol Gastrointest. Liver Physiol 288, 316-26), and 10 or 25 μg of protein size separated using reducing SDS-PAGE. Equal protein loading was confirmed by Coomassie blue staining. […]

CXCL12 mRNA expression = test: RT-PCR analysis of CXCL12 and CXCR4 mRNA in 5-aza-treated colonic carcinoma cells; assay type: cell-based, human; conditions: for CXCL12 mRNA expression: indicated concentrations for five days
Text: as §1
RT-PCR analysis. Total RNA was isolated from cultured cells and colonic crypt epithelium using TRIzol reagent (Invitrogen, Carlsbad, Calif.), DNase treated (Ambion, Austin, Tex.) and 2 μg of total RNA was converted to cDNA via reverse transcription using random priming in a 40 μl volume. CXCL12, CXCR4, and β-actin mRNA transcripts were amplified using previously described PCR primers and conditions (Heidemann, J., et al. (2004) Am. J. Physiol Gastrointest. Liver Physiol 286, G1059-G1068; Smith, J. M., et al. (2005) Am. J. Physiol Gastrointest. Liver Physiol 288, 316-26). Other PCR analyses were conducted using listed primer pairs and conditions (Table S1). […] in cDNA synthesis reactions as a negative control.

[2] = system: CXCL12 protein expression; test: Immunofluorescence microscopy of CXCL12 protein in 5-aza-treated HCT116 cells; assay type: cell-based, human; conditions: 2.5 μM 5-aza, 3 days
Method: Immunofluorescence microscopy. HCT116 epithelial cells were plated to glass chamber slides and grown for 3-days in untreated or 5-aza containing media. Cells were stained with mouse mAb specific for CXCL12 (clone #79018.111, R&D Systems) or a nonspecific mouse IgG control antibody (BD Pharmingen, San Jose, Calif.). CXCL12 protein and IgG background staining was visualized using Alexa Fluor 594 conjugated goat anti-mouse antibody (Molecular Probes, Eugene, Oreg.). Nuclei were visualized with a DAPI counterstain.

CXCL12 promoter = test: Methylation-specific PCR of the CXCL12 promoter in 5-aza-treated cells; assay type: cell-based, human
Method: Methylation Specific PCR and Bisulphite Sequencing PCR. Genomic DNA from cell lines and colonic crypt preparations was isolated using the Genomic DNA wizard kit (Promega, Madison, Wis.) or TRIzol according to the manufacturer's instructions. […] DNA (2 μg) was denatured in 0.3M NaOH at 42° C. for 20 min in a 111 μl reaction volume. To this 1.2 ml of sodium bisulphite solution (4.5M NaHSO3, 0.02M hydroquinone, and pH 5.0) was added and incubated 16 hrs at 55° C. This reaction was desalted using DNA Purification Wizard (Promega) and the DNA was desulfonated in 0.3M NaOH at 37° C. for 20 min. The converted DNA was precipitated at −20° C., overnight in 75% ethanol containing 0.7M ammonium acetate and 0.05 mg/ml of glycogen, reconstituted in 50 μl of water, and 4.0 μl used in each 50 μl PCR reaction using 0.5 μM of specific MSP primers (Table S1).

T1 sequence (P26358 whole entry): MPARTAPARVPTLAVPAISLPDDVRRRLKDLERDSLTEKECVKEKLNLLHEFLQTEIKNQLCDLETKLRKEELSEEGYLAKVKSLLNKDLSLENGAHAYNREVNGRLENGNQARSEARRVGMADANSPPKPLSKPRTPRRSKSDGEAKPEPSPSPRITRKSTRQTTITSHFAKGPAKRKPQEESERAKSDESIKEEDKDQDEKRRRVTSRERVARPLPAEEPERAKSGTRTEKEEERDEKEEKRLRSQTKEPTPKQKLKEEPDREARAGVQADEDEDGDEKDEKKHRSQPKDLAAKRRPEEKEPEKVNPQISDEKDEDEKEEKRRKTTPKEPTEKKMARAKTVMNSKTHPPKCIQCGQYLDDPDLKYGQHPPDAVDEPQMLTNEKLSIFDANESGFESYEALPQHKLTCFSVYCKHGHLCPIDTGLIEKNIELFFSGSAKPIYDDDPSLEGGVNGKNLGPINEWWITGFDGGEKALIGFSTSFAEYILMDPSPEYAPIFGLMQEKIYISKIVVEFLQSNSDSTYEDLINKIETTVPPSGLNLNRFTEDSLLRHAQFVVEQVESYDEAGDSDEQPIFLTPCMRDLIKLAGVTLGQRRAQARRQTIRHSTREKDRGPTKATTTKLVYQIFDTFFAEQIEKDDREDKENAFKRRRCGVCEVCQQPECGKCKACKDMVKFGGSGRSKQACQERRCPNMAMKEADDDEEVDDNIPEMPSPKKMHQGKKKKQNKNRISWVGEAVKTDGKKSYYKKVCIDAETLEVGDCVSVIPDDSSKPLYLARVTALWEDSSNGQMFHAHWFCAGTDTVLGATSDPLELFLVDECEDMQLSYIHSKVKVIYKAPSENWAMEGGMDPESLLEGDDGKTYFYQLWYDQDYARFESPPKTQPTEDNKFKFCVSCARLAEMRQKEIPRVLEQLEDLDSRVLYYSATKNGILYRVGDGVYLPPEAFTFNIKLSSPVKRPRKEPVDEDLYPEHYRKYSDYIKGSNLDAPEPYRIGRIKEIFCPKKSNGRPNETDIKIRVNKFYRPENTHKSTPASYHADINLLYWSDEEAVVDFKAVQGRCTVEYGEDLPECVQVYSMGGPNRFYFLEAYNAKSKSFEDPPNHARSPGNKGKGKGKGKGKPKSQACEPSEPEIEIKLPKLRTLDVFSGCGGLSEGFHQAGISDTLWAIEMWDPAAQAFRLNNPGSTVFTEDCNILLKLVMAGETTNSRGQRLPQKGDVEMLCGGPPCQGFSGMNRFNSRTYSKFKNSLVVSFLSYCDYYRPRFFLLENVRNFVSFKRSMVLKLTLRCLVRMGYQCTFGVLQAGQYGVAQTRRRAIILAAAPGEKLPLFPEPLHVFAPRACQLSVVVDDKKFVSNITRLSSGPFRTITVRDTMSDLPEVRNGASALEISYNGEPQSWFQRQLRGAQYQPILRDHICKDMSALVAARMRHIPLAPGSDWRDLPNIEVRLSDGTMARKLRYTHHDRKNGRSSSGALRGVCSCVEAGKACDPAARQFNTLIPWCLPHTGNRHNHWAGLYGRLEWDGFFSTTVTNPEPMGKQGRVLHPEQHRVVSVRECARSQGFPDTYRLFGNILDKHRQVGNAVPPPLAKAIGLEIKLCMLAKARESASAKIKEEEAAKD

Molecule: c1cc(CN2CCCNCCNCCCNCC2)ccc1CN1CCCNCCNCCCNCC1 [AMD3100]
- chemotaxis of U937 cells toward CXCL12-expressing HT29 and HCT116 cells ([1]; AMD3100 5 μg/ml, 3 hr): potently blocked migration

Molecule: CXCL12: alpha type 7.8 kDa CXC chemokine, here secreted by stably transfected HT29 and HCT116 cells
- ability to stimulate chemotaxis of U937 cells ([1]; CXCL12 secreted from HT29 and HCT116 stable transfectants): functional

Molecule: Nc1ncn([C@H]2C[C@H](O)[C@@H](CO)O2)c(=O)n1 [5-aza, 5-aza-2′-deoxycytidine]
- extractable levels of Dnmt1 (Dnmt1): ablated
- CXCL12 gene re-expression (CXCL12 mRNA expression; Caco2 cells (data not shown)): similarly fostered gene re-expression
- CXCL12 mRNA expression (CXCL12 mRNA expression; HCT116 cells): dose-dependently restored
- CXCR4 mRNA levels (CXCL12 mRNA expression; HT29 and HCT116 cells with 5-aza treatment): remained unchanged
- CXCL12 mRNA expression (CXCL12 mRNA expression; HT29 cells): dose-dependently restored
- time of maximal CXCL12 re-expression (CXCL12 mRNA expression; HT29 or HCT116 cells, 2.5 μM 5-aza for 3-6 days): 5 days
- CXCL12 gene re-expression (CXCL12 mRNA expression; T84 cells (data not shown)): similarly fostered gene re-expression
- CXCL12 protein expression by immunofluorescence [2]: detected
- methylation of the CXCL12 promoter (CXCL12 promoter; HCT116 cells, 2.5 μM 5-aza, 3 days): inhibited
- methylation of the CXCL12 promoter (CXCL12 promoter; HT29 cells (data not shown)): inhibited

Source: patent US8404640B2 (priority 2006, dated 2013)
